According to PubChem BioAssay (NCI):
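Compound exposure: 48 hours, 5 concentrations, 96-well plates. TGI marks complete inhibition of growth.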 Where a SMILES comes first, the peptide text is derived from it. The star is where a group is joined. Fmoc = O=C(OCC1c2ccccc2-c2ccccc21)*; Boc = CC(C)(C)OC(=O)*

Key:
Experiment in all cases: inhibition of tumour cell growth, NCI panel, 48 h
EKVX NSCLC = tested on: EKVX NSCLC
OVCAR-8 ovarian = tested on: OVCAR-8 ovarian
SW-620 colon = tested on: SW-620 colon
SK-MEL-2 melanoma = tested on: SK-MEL-2 melanoma
M14 melanoma = tested on: M14 melanoma
NCI-H23 lung = tested on: NCI-H23 lung
CAKI-1 renal = tested on: CAKI-1 renal
UACC-62 melanoma = tested on: UACC-62 melanoma
MALME-3M melanoma = tested on: MALME-3M melanoma
HT29 colon = tested on: HT29 colon
COLO 205 colon = tested on: COLO 205 colon
K-562 leukemia = tested on: K-562 leukemia
SNB-75 CNS = tested on: SNB-75 CNS

## OCCOc1ccccc2cccc1-2
EKVX NSCLC
  TGI: > 100 µM
OVCAR-8 ovarian
  TGI: > 100 µM
SW-620 colon
  TGI: > 100 µM
SK-MEL-2 melanoma
  TGI: > 100 µM
M14 melanoma
  TGI: > 100 µM
NCI-H23 lung
  TGI: > 100 µM
CAKI-1 renal
  TGI: > 100 µM
UACC-62 melanoma
  TGI: > 100 µM
MALME-3M melanoma
  TGI: > 100 µM
HT29 colon
  TGI: > 100 µM
COLO 205 colon
  TGI: > 100 µM
K-562 leukemia
  TGI: > 100 µM
SNB-75 CNS
  TGI: > 100 µM

## O=C1C=C(OCCCCl)C(=O)c2c(O)ccc(O)c21
EKVX NSCLC
  TGI: 3.19 µM
OVCAR-8 ovarian
  TGI: 7.59 µM
SW-620 colon
  TGI: 2.3 µM
SK-MEL-2 melanoma
  TGI: 2.43 µM
M14 melanoma
  TGI: 0.341 µM
NCI-H23 lung
  TGI: 0.479 µM
CAKI-1 renal
  TGI: 3.4 µM
UACC-62 melanoma
  TGI: 0.882 µM
MALME-3M melanoma
  TGI: 0.322 µM
HT29 colon
  TGI: 1.31 µM
COLO 205 colon
  TGI: 0.642 µM
K-562 leukemia
  TGI: 5.86 µM
SNB-75 CNS
  TGI: 2.69 µM

## CC(C)(C)OC(=O)NCCCCC(NC(=O)C(Cc1c[nH]c2ccccc12)NC(=O)OCC1c2ccccc2-c2ccccc21)C(=O)N1CCCC1C(=O)NCC(N)=O (configuration not stated) (Fmoc-WK(Boc)PG-NH2; configuration not given here)
EKVX NSCLC
  TGI: > 100 µM
OVCAR-8 ovarian
  TGI: > 100 µM
SW-620 colon
  TGI: > 100 µM
SK-MEL-2 melanoma
  TGI: > 100 µM
M14 melanoma
  TGI: > 100 µM
NCI-H23 lung
  TGI: > 100 µM
CAKI-1 renal
  TGI: > 100 µM
UACC-62 melanoma
  TGI: > 100 µM
MALME-3M melanoma
  TGI: > 100 µM
HT29 colon
  TGI: > 100 µM
COLO 205 colon
  TGI: > 100 µM
K-562 leukemia
  TGI: > 100 µM
SNB-75 CNS
  TGI: > 100 µM

## COc1cc2c(cc1OCCCCOc1cc3c(cc1OC)C(=O)N1CCC[C@H]1C(=O)N3)N=C[C@@H]1CCCN1C2=O
EKVX NSCLC
  TGI: 27.6 µM
OVCAR-8 ovarian
  TGI: 27.8 µM
SW-620 colon
  TGI: 14.6 µM
SK-MEL-2 melanoma
  TGI: 20.1 µM
M14 melanoma
  TGI: 33 µM
NCI-H23 lung
  TGI: 25.4 µM
CAKI-1 renal
  TGI: 25.5 µM
UACC-62 melanoma
  TGI: 10.3 µM
MALME-3M melanoma
  TGI: 22.5 µM
HT29 colon
  TGI: 43.2 µM
COLO 205 colon
  TGI: 7.41 µM
K-562 leukemia
  TGI: 6.88 µM
SNB-75 CNS
  TGI: 18.1 µM

## COc1cc(C2C(Cl)C(=O)N2NC(=O)c2ccc(N)cc2)cc(Br)c1O (configuration not stated)
EKVX NSCLC
  TGI: 31 µM
OVCAR-8 ovarian
  TGI: > 100 µM
SW-620 colon
  TGI: 35.1 µM
SK-MEL-2 melanoma
  TGI: 32.3 µM
M14 melanoma
  TGI: 29.2 µM
NCI-H23 lung
  TGI: 35.1 µM
CAKI-1 renal
  TGI: 30.7 µM
UACC-62 melanoma
  TGI: 30.4 µM
MALME-3M melanoma
  TGI: 27.5 µM
HT29 colon
  TGI: 41.9 µM
COLO 205 colon
  TGI: 33.4 µM
K-562 leukemia
  TGI: 48.7 µM
SNB-75 CNS
  TGI: 33.3 µM

## O=C1C=CC(=O)c2c1ccc1c3ccccc3n(Cc3cccc([N+](=O)[O-])c3)c21
EKVX NSCLC
  TGI: > 100 µM
OVCAR-8 ovarian
  TGI: > 100 µM
SW-620 colon
  TGI: 32.4 µM
SK-MEL-2 melanoma
  TGI: > 100 µM
M14 melanoma
  TGI: 71.7 µM
NCI-H23 lung
  TGI: 50.4 µM
CAKI-1 renal
  TGI: 31 µM
UACC-62 melanoma
  TGI: > 78.6 µM
MALME-3M melanoma
  TGI: 40 µM
HT29 colon
  TGI: > 73.1 µM
COLO 205 colon
  TGI: 21.2 µM
K-562 leukemia
  TGI: > 59.9 µM
SNB-75 CNS
  TGI: > 100 µM

## Ic1cc2c(cc1C1SCCCS1)OCO2
EKVX NSCLC
  TGI: > 100 µM
OVCAR-8 ovarian
  TGI: > 100 µM
SW-620 colon
  TGI: > 100 µM
SK-MEL-2 melanoma
  TGI: > 100 µM
M14 melanoma
  TGI: > 100 µM
NCI-H23 lung
  TGI: > 100 µM
CAKI-1 renal
  TGI: > 100 µM
UACC-62 melanoma
  TGI: > 100 µM
MALME-3M melanoma
  TGI: > 100 µM
HT29 colon
  TGI: > 100 µM
COLO 205 colon
  TGI: > 100 µM
K-562 leukemia
  TGI: > 100 µM
SNB-75 CNS
  TGI: > 100 µM

## CCOc1cc2oc(C)cc(=O)c2c(OC)c1C=Nc1ccc(Cn2c(C)nc3ccccc32)cc1
EKVX NSCLC
  TGI: > 100 µM
OVCAR-8 ovarian
  TGI: > 100 µM
SW-620 colon
  TGI: > 100 µM
SK-MEL-2 melanoma
  TGI: > 100 µM
M14 melanoma
  TGI: > 100 µM
NCI-H23 lung
  TGI: > 100 µM
CAKI-1 renal
  TGI: > 100 µM
UACC-62 melanoma
  TGI: > 100 µM
MALME-3M melanoma
  TGI: > 100 µM
HT29 colon
  TGI: > 100 µM
COLO 205 colon
  TGI: > 100 µM
K-562 leukemia
  TGI: > 100 µM
SNB-75 CNS
  TGI: > 100 µM

## CCN(CC)Cc1c(/C=C\c2cc(OC)c(OC)c(OC)c2)ccc(OC)c1O
EKVX NSCLC
  TGI: > 93.5 µM
OVCAR-8 ovarian
  TGI: 63.2 µM
SW-620 colon
  TGI: > 100 µM
SK-MEL-2 melanoma
  TGI: > 37.1 µM
M14 melanoma
  TGI: > 59.1 µM
NCI-H23 lung
  TGI: 14.3 µM
CAKI-1 renal
  TGI: > 100 µM
UACC-62 melanoma
  TGI: 27.7 µM
MALME-3M melanoma
  TGI: > 100 µM
HT29 colon
  TGI: 9.48 µM
COLO 205 colon
  TGI: 7.36 µM
K-562 leukemia
  TGI: > 100 µM
SNB-75 CNS
  TGI: 9.49 µM
